# Results from patent publication US9884048B2, “ERK inhibitors” (Merck Sharp & Dohme Corp., priority 2014, dated 2018).
# Molecular target: phosphorylated active hERK2 enzyme (Homo sapiens (Human), UniProt P28482)
# Conditions: not given
# Sequence of phosphorylated active hERK2 enzyme (P28482 whole entry): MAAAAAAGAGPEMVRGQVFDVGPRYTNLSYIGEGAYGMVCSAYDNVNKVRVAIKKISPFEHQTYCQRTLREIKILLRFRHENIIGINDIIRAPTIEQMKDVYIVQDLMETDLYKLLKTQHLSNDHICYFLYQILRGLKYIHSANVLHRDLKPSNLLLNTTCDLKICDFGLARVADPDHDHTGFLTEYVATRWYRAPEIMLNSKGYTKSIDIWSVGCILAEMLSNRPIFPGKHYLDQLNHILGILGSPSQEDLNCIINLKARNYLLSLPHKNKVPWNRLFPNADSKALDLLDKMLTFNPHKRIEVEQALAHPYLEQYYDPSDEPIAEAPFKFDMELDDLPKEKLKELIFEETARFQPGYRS
row,IC50,Compound
1,0.0191 µM,"Cc1cc(-n2ncc3cc(NC(=O)N[C@H]4CCCC[C@H]4c4ccc(F)cc4)ncc32)ccn1 (racemic) [Example 174, Racemic cis 1-[(1S,2S) and (1R,2R)-2-(4-fluorophenyl)cyclohexyl]-3-[1-(2-methylpyridin-4-yl)-1H-pyrazolo[3,4-c]pyridin-5-yl]urea]"
2,0.711 µM,"Cc1cc(-n2ncc3cc(NC(=O)N[C@H]4CCCC[C@@H]4NC(=O)c4ccccc4)ncc32)ccn1 (racemic) [Example 152, Racemic Trans N-[(1S,2S) and (1R, 2R)-2-({[1-(2-methylpyridin-4-yl)-1H-pyrazolo[3,4-c]pyridin-5-yl]carbamoyl}amino)cyclo-hexy]benzamide]"

# Same assay, conditions: read-out: ERK2 IC50; IMAP-FP assay; 0.5 nM hERK2, 30 μM ATP; 10 point titration, 3 μM starting concentration
row,IC50,Compound
1,0.0401 µM,"C[C@@H](NC(=O)Nc1cc2cnn(-c3ccc(F)cc3)c2c(CO)n1)c1ccccc1 [Example 240, 1-[1-(4-fluorophenyl)-7-(hydroxymethyl)-1H-pyrazolo[3,4-c]pyridin-5-yl]-3-[(1R)-1-phenylethyl]urea]"
2,0.111 µM,"C[C@@H](NC(=O)Nc1cc2cnn(CCC#N)c2c(CO)n1)c1ccccc1 [Example 323, 1-[1-(2-Cyanoethyl)-7-(hydroxymethyl)-1H-pyrazolo[3,4-c]pyridin-5-yl]-3-[(R)-1-phenylethyl]urea]"
3,0.0464 µM,"CO[C@H]1CN(C)C[C@@H]1NC(=O)Nc1cc2cnn(-c3ccnc(C)c3)c2cn1 [Example 291, 1-[(3S,4S)-4-methoxy-1-methylpyrrolidin-3-yl]-3-[1-(2-methylpyridin-4-yl)-1H-pyrazolo[3,4-c]pyridin-5-yl]urea]"
4,0.123 µM,"Cc1cc(-n2ncc3cc(NC(=O)N[C@H](CN(C)C)c4ccccc4)ncc32)ccn1 [Example 130, 1-[(1S)-2-(dimethylamino)-1-phenylethyl]-3-[1-(2-methylpyridin-4-yl)-1H-pyrazolo[3,4-c]pyridin-5-yl)urea]"
5,0.0186 µM,"Cc1cc(-n2ncc3cc(NC(=O)NC4CCCN(Cc5cccnc5Cl)C4)ncc32)ccn1 (stereo not shown) [Example 268, 1-{1-[(2-chloropyridin-3-yl)methyl]piperidin-3-yl}-3-[1-(2-methylpyridin-4-yl)-1H-pyrazolo[3,4-c]pyridin-5-yl]urea]"
6,0.00113 µM,"Cc1cc(-n2ncc3cc(NC(=O)N[C@H]4CN(C)C[C@@H]4c4ccc(C5CC5)s4)ncc32)ccn1 [Example 164, 1-[(3R,4S)-4-(5-cyclopropylthiophen-2-yl)-1-methylpyrrolidin-3-yl]-3-[1-(2-methylpyridin-4-yl)-1H-pyrazolo[3,4-c]pyridin-5-yl]urea]"
7,0.3 µM,"Cc1cc(-n2ncc3cc(NC(=O)N[C@H]4CN(C)C5(COC5)[C@@H]4c4ccccc4)ncc32)ccn1 [Example 202, 1-[(7R,8R)-5-methyl-8-phenyl-2-oxa-5-azaspiro[3.4]oct-7-yl]-3-[1-(2-methylpyridin-4-yl)-1H-pyrazolo[3,4-c]pyridin-5-yl]urea]"
8,0.00068 µM,"COC[C@@H](NC(=O)Nc1cc2cnn(-c3ccnc(C)c3)c2cn1)c1ccccc1 [Example 90, 1-[(1S)-2-methoxy-1-phenylethyl]-3-[1-(2-methylpyridin-4-yl)-1H-pyrazolo[3,4-c]pyridin-5-yl)urea]"
9,0.563 µM,"C=CC(=O)NCCc1nc(NC(=O)N[C@H](C)c2ccccc2)cc2cnn(C)c12 [Example 329, N-{2-[1-Methyl-5-({[(1R)-1-phenylethyl]carbamoyl}amino)-1H-pyrazolo[3,4-c]pyridin-7-yl]ethyl}prop-2-enamide]"
10,0.000718 µM,"CCN1C[C@H](NC(=O)Nc2cc3cnn(-c4ccnc(C)c4)c3cn2)[C@@H](c2ccccc2)C1 [Example 199, 1-[(3R,4S)-1-ethyl-4-phenylpyrrolidin-3-yl]-3-[1-(2-methylpyridin-4-yl)-1H-pyrazolo[3,4-c]pyridin-5-yl]urea]"
11,0.000997 µM,"Cc1cc(-n2ncc3cc(NC(=O)NC4CCN(Cc5c(F)cccc5F)C4)ncc32)ccn1 (stereo not shown) [Example 271, 1-[1-(2,6-difluorobenzyl)pyrrolidin-3-yl]-3-[1-(2-methylpyridin-4-yl)-1H-pyrazolo[3,4-c]pyridin-5-yl]urea]"
12,0.00285 µM,"Cc1cc(-n2ncc3cc(NC(=O)NC4CCCC(c5ccccc5)C4)ncc32)ccn1 (stereo not shown) [Example 171, 1-[1-(2-methylpyridin-4-yl)-1H-pyrazolo[3,4-c]pyridin-5-yl]-3-(3-phenyl-cyclohexyl)urea]"
13,0.00108 µM,"Cc1cc(-n2ncc3cc(NC(=O)N[C@@H](c4ccc(F)cc4)C(C)(C)O)ncc32)ccn1 [Example 294, 1-[(1S)-1-(4-fluorophenyl)-2-hydroxy-2-methylpropyl]-3-[1-(2-methylpyridin-4-yl)-1H-pyrazolo[3,4-c]pyridin-5-yl]urea]"
14,0.0622 µM,"CC(C)n1ncc2cc(NC(=O)N[C@H](C)c3ccccc3)nc(CO)c21 [Example 302, 1-[7-(hydroxymethyl)-1-(1-methylethyl)-1H-pyrazolo[3,4-c]pyridin-5-yl]-3-[(1R)-1-phenylethyl]urea]"
15,0.115 µM,Cc1cc(-n2ncc3cc(NC(=O)NC4CCCN(Cc5cccnc5)C4)ncc32)ccn1 (stereo not shown) [Example 265]
16,0.59 µM,"COC[C@@H](NC(=O)Nc1cc2cnn(-c3ccnc(C)c3)c2cn1)c1ccc(F)cc1 [Example 33, 1-[(1S)-1-(4-fluorophenyl)-2-methoxyethyl]-3-[1-(2-methylpyridin-4-yl)-1H-pyrazolo[3,4-c]pyridin-5-yl]urea]"

row,IC50,Compound
1,0.801 µM,"CNC(=O)c1ccc(CNC(=O)Nc2cc3cnn(-c4ccnc(C)c4)c3cn2)cc1 [Example 92, N-methyl-4-[({[1-(2-methylpyridin-4-yl)-1H-pyrazolo[3,4-c]pyridin-5-yl]carbamoyl}amino)methyl] benzamide]"
2,0.289 µM,"CC(=O)NCc1nc(NC(=O)N[C@H](C)c2ccccc2)cc2cnn(-c3ccc(F)cc3)c12 [Example 325, N-{[1-(4-fluorophenyl)-5-({[(1R)-1-phenylethyl]carbamoyl}amino)-1H-pyrazolo[3,4-c]pyridin-7-yl]methyl}acetamide]"
3,0.511 µM,"Cc1cc(-n2ncc3cc(NC(=O)N[C@H]4CCC[C@@H]4Oc4cccnc4)ncc32)ccn1 [Example 179, 1-[1-(2-methylpyridin-4-yl)-1H-pyrazolo[3,4-c]pyridin-5-yl]-3-[(1S,2S)-2-(pyridin-3-yloxy)cyclopentyl]urea]"
4,0.0158 µM,"Cc1cc(-n2ncc3cc(NC(=O)N[C@@H]4CN(C)C[C@H]4c4nc(C)cs4)ncc32)ccn1 [Example 126, 1-[(3S,4R)-1-methyl-4-(4-methyl-1,3-thiazol-2-yl)pyrrolidin-3-yl]-3-[1-(2-methylpyridin-4-yl)-1H-pyrazolo[3,4-c]pyridin-5-yl)urea]"
5,0.0559 µM,"COCc1nc(NC(=O)N[C@H](C)c2ccccc2)cc2cnn(-c3ccc(F)cc3)c12 [Example 241, 1-[1-(4-fluorophenyl)-7-(methoxymethyl)-1H-pyrazolo[3,4-c]pyridin-5-yl]-3-[(1R)-1-phenylethyl]urea]"
6,0.14 µM,"Cc1cc(-n2ncc3cc(NC(=O)N[C@H]4CN(C)C[C@@H]4[C@@H]4CCCOC4)ncc32)ccn1 [Example 24, 1-[1-(2-methylpyridin-4-yl)-1H-pyrazolo[3,4-c]pyridin-5-yl]-3-{(3R,4S)-1-methyl-4-[(3S)-tetrahydro-2H-pyran-3-yl]pyrrolidin-3-yl}urea]"
7,0.0159 µM,"Cc1cc(-n2ncc3cc(NC(=O)NCCOc4ccc(F)cc4)ncc32)ccn1 [Example 85, 1-[2-(4-fluorophenoxy)ethyl]-3-[1-(2-methylpyridin-4-yl)-1H-pyrazolo[3,4-c]pyridin-5-yl)urea]"
8,0.00231 µM,"Cc1cc(-n2ncc3cc(NC(=O)NCC4Cc5ccccc5N(C)C4)ncc32)ccn1 (stereo not shown) [Example 99, 1-[1-(2-methylpyridin-4-yl)-1H-pyrazolo[3,4-c]pyridin-5-yl]-3-[(1-methyl-1,2,3,4-tetrahydroquinolin-3-yl)methyl]urea]"
9,0.00885 µM,"Cc1cc(-n2ncc3cc(NC(=O)N[C@H]4CN(CC(F)(F)F)C[C@@H]4c4ccccc4)ncc32)ccn1 [Example 156, 1-[1-(2-methylpyridin-4-yl)-1H-pyrazolo[3,4-c]pyridin-5-yl]-3-[(3R,4S)-4-phenyl-1-(2,2,2-trifluoroethyl)pyrrolidin-3-yl)urea]"
10,0.0005 µM,"Cc1cc(-n2ncc3cc(NC(=O)N[C@H]4[C@H](c5ccccc5C)CN(C)[C@H]4C)ncc32)ccn1 [Example 101, 1-[(2S,3S,4R)-1,2-dimethyl-4-(2-methylphenyl)-pyrrolidin-3-yl]-3-[1-(2-methylpyridin-4-yl)-1H-pyrazolo[3,4-c]pyridin-5-yl)urea]"
11,0.00258 µM,"CCNC(=O)[C@@H](NC(=O)Nc1cc2cnn(-c3ccnc(C)c3)c2cn1)c1ccccc1 [Example 141, (2S)-N-ethyl-2-({[1-(2-methylpyridin-4-yl)-1H-pyrazolo[3,4-c]pyridin-5-yl]carbamoyl}amino)-2-phenylethanamide]"
12,1.52 µM,"COCCCn1ncc2cc(NC(=O)N[C@H](C)c3ccccc3)ncc21 [Example 235, 1-[1-(3-methoxypropyl)-1H-pyrazolo[3,4-c]pyridin-5-yl]-3-[(1R)-1-phenylethyl]urea]"
13,0.0169 µM,"Cc1cc(-n2ncc3cc(NC(=O)NCCN4CC5CC4CN5c4ccccc4)ncc32)ccn1 (stereo not shown) [Example 70, 1-[1-(2-methylpyridin-4-yl)-1H-pyrazolo[3,4-c]pyridin-5-yl]-3-[2-(5-phenyl-2,5-diazabicyclo[2.2.1]hept-2-yl)ethyl]urea]"
14,0.857 µM,"COC(=O)[C@@H](NC(=O)Nc1cc2cnn(-c3ccnc(C)c3)c2cn1)c1ccccc1 [Example 137, methyl (2S)-({[1-(2-methylpyridin-4-yl)-1H-pyrazolo[3,4-c]pyridin-5-yl]carbamoyl}amino)(phenyl) ethanoate]"
15,0.0425 µM,"Cc1cc(-n2ncc3cc(NC(=O)N[C@@H](CN)c4ccccc4)ncc32)ccn1 [Example 186, 1-[(1R)-2-amino-1-phenylethyl]-3-[1-(2-methylpyridin-4-yl)-1H-pyrazolo[3,4-c]pyridin-5-yl]urea]"
16,1.23 µM,"C[C@@H](NC(=O)Nc1cc2cnn(C3CCNC(=O)C3)c2cn1)c1ccc(F)cc1 (stereo partly drawn) [Example 233, 1-[(1R)-1-(4-fluorophenyl)ethyl]-3-[1-(2-oxopiperidin-4-yl)-1H-pyrazolo[3,4-c]pyridin-5-yl]urea]"
